Assay results as given in BindingDB's records for doi:10.1016/0960-894X(95)00055-X (1995).

Target: Trehalase (Sus scrofa)
Assay: Evaluated for the inhibition of trehalase from porcine kidneys

For OCC1=CC(NC2COC(CO)C(O)C2O)C(O)C(O)C1O (stereo unspecified) [6-(4,5-Dihydroxy-6-hydroxymethyl-tetrahydro-pyran-3-ylamino)-4-hydroxymethyl-cyclohex-4-ene-1,2,3-triol], the Ki was 180 nM.
